Data as given in US9012483B2, “Use of L-Histidine and derivatives thereof” (priority 2011, dated 2015).
Entries after “also recorded” stand apart in the source; their conditions may differ. Read-outs that look alike come from different tables or passages of the source. Marks after values point to notes of the source that are not given here.

Assays:
[1] = Pharmacokinetics of histidine in plasma after oral administration; type: in vivo, CD(SD)IGS BR rat; conditions: for Tmax / AUC(0-inf) / Cmax: male, CD(SD)IGS BR; for Tmax / AUC(0-inf) / Cmax / t1/2λz: rat plasma; for total plasma clearance: rat
Experimental: Aliquots of L-Histidine dihydrochloride powder, accurately weighted, were transferred into 5 and 10 mL volumetric flasks. MilliQ-water was used to dissolve the powder. Standard solution was prepared to obtain CAL samples and CQ samples. The range of the stock standard solution was from 3.46 to 343 μg/mL. All standard solutions were stored at +4° C., in the dark: under these conditions they were considered stable for up to one month.
CAL samples were prepared by using the standard solution at the concentration of 3.46, 34.3, 68.6, 173 and 343 μg/mL and QC samples by using the standard solution at the concentration of 14.3, 67.1, 143 and 268 μg/mL.
CAL and QC samples were prepared by mixing 10 μL of Histidine standard solution with […] of blank rat plasma.
(§1) To these samples 20 μL of trichloroacetic acid (16% w/v) were added to precipitate the plasma proteins. The tubes were vortexed for few seconds and centrifuged for 10 min at 2000 g at room temperature; to 90 μL of the clear supernatant 45 μL of a soaked solution of Sodium carbonate (200 mM) and 90 μL of derivatizing solution (4 mg/mL of Dansyl chloride) were added. The tubes were vortexed for few seconds and incubated under stirring for 30 minutes at 60° C. Five microliters of Methylamine Hydrochloride were added and after cooling for 15 minutes, ten microliters of the sample were injected into the HPLC equipment.
as §1, with “Test plasma samples (S) were prepared by adding 10 μL of Milli-Q water to 90 μL of undiluted plasma or 90 μL of plasma suitably diluted with blank plasma (if sample volume was not enough). To” for “To”, “equipment. All plasma samples collected during the study were stored at −20° C. until analysis.” for “equipment.”
• Species and strain: CD(SD)IGS BR rat • sex of animals: males • Weight and age at treatment: 306-376 g (10-14 weeks old) • Supplier: Charles River Laboratories, Calco (LC), Italy
(§2) Rats were used to determine the pharmacokinetic parameters after administration of three different histidine doses (100, 500 and 1000 mg/kg, three animals for each group).
Plasma concentrations of Histidine as a function of time after injection C(t), were analyzed by non-parametric methods using the computer program WIN-NONLIN 4.0.1. For the tested doses, a non-compartmental analysis was performed using the average plasma concentrations from 3 animals for each time point (except when indicated). For Cmax (peak plasma concentration) and the corresponding tmax ([…]) the observed values were reported. The terminal phase elimination rate constant (λz) was estimated by log-linear regression of those data points visually assessed to be in the terminal phase of the profile. At least three terminal plasma concentrations were used for estimating λz. The terminal elimination half life (t ½ λz, time required for a drug to decline to half of its original plasma value) was calculated as t ½ λz=In 2/λz. Area under the plasma concentration-time curve to the last observable plasma concentration (AUC(0 to t)) was calculated from observed data using the logarithmic trapezoidal method. Total area under the plasma concentration-time curve from zero to infinity (AUC(0 to ∞)) was estimated by AUC(0 to ∞) =AUC(0 to t) +ct/λz, where ct is the predicted concentration at the last quantified time point. AUC defines extent of drug exposure.

[2] = Clinical signs in the pharmacokinetic study after oral histidine; type: in vivo, CD(SD)IGS BR rat; conditions: rat, up to 1000 mg/kg
Experimental: as §2

[3] = test system: Gd(DTPA-BMA) and Gd(DTPA) complexes with Cu(II); test: Kinetics of transmetallation of Gd(DTPA) and Gd(DTPA-BMA) with Cu(II) in the presence of citrate and histidine (spectrophotometry, 300 nm); type: physicochemical; conditions: [GdL]=2.0 mM, [Cu]=0.1 mM, [cit]=2.0 mM, [His]=0.2-0.8 mM, pH 7.0, 25° C., 0.15 M NaCl
Experimental: In order to have some clues on the kinetics of a possible transmetallation reactions in the presence of citrate (an important counter-ion present in plasma and found to be highly interactive with Gd^3+) and increasing amounts of histidine, the rates of the following reactions have been studied: GdL+Cu^2++His+cit⇄CuL+Gd(cit)+His (1)
In the experiment, the concentration used for Gd^3+ complex (GdL), citrate and Cu^2+ were: 2.0, 2.0 and 0.1 mM, respectively, while the concentration of His was varied (0.2, 0.4, 0.6 and 0.8 mM).
The progress of the exchange reactions (1) has been studied by spectrophotometry (Cary 1E spectrophotometer) at 300 nm, with the use of 1.0 cm quartz cell at 25° C. in 0.15 M NaCl in the pH range 6-8. […]

Gd(DTPA-BMA) = test: Dissociation of Gd(DTPA-BMA) in artificial plasma, relaxivity at 20 MHz; type: physicochemical; conditions: pH 7.5, 37° C.
[4] = for changes in Gd^3+ content in liver and spleen: versus group 1; for % ID in femour, mean / Gadolinium content in femour, mean: p < 0.01 vs group 1; for Gadolinium content in skin, mean: p < 0.05 vs group 1
Text: L-Histidine was orally administered by gavage, while Omniscan® was intravenously administered.
On the day of scheduled sacrifice, animals were anesthetized with an inhalation agent, sevoflurane, at an respiratory concentration of 3% in induction and 1-2% in maintenance and bled after collection of blood from the abdominal aorta. After exsanguination, liver, spleen, femur and skin of all animals were excised, weighed and prepared for ICP-MS determination of gadolinium content. Sample digestion (spleen and femur) was performed by a microwave system (MARS-5 CEM Corporation).
Liver and skin samples were freeze-dried with a lyophilizer (Alpha-1-2LD Plus, CHRIST) after being frozen at −80° C. for at least 1 h. After drying, dehydrated livers were weighed and then ground in a mortar.
Gadolinium content in organs was reported as μg of Gd.

[5] = rat, oral histidine 4.38 mmol/kg and iv Omniscan 1 mmol/kg
[6] = cited from earlier work
[7] = cited from earlier work; remark: listed apart in the source
Cu(His)2 = test: Exchange reaction between Gd(DTPA-BMA) and Cu(His)2 without and with citrate (UV spectrum); type: physicochemical; conditions: Cu(His)2 0.2 mM, Gd(DTPA-BMA) 2.0 mM, pH 6.5, 25° C., 0.15 M NaCl
Experimental: FIG. 3. The UV spectrum of Cu(His)2 in the presence of Gd(DTPA-BMA) excess (Panel A) and in the presence of citrate and Gd(DTPA-BMA) excess (Panel B). (Cu(His)2=0.2 mM, Gd(DTPA-BMA)=2.0 mM) (A). (Cu(His)2=0.2 mM, Gd(DTPA-BMA)=2.0 mM, Citrate=2.0 mM) (B). pH=6.5, 25° C., 0.15 M NaCl.
It is possible to conclude that in body fluids transmetallation reactions may take place between the DTPA-derivative Gd^3+ complexes and endogenous metal ions, like Cu^2+ and Zn^2+. The possibility of the transmetallation reactions can be predicted on the basis of the stability constants of complexes formed between the most important endogenous metals and ligands. The stability constants have been determined for the Gd^3+, Cu^2+ and Zn^2+ complexes of the DTPA, DTPA-BMA, citrate and histidine ligands. […] The species distribution calculations have been experimentally verified by following the exchange reactions between Gd(DTPA-BMA) and Cu(His)2 in the absence and presence of citrate.

[8] = group 2, histidine pretreatment at 30 min
[9] = group 2: oral histidine 4.38 mmol/kg 30 min before Omniscan 1 mmol/kg iv, 24 h
[10] = group 2: oral histidine 4.38 mmol/kg 30 min before Omniscan 1 mmol/kg iv, 24 h, listed as Histidine
[11] = group 2: oral histidine 4.38 mmol/kg 30 min before Omniscan 1 mmol/kg iv, 24 h, listed as histidine
[12] = histidine 30 min before Omniscan versus no histidine pretreatment

Compound: N[C@@H](Cc1c[nH]cn1)C(=O)O [L-Histidine]
- Tmax ([1]; 100 mg/kg): 30 min
- Tmax ([1]; 1000 mg/kg): 30 min
- AUC(0-inf) ([1]; Histidine 100 mg/kg): 550 µg·h/mL
- Cmax ([1]; Histidine 100 mg/kg (0.438 mmol/kg)): 9000 ng/mL
- AUC(0-inf) ([1]; Histidine 500 mg/kg): 630 µg·h/mL
- Tmax ([1]; Histidine 500 mg/kg): 60 min
- Cmax ([1]; Histidine 500 mg/kg (2.192 mmol/kg)): 20900 ng/mL
- AUC(0-inf) ([1]; Histidine 1000 mg/kg): 390 µg·h/mL
- Cmax ([1]; Histidine 1000 mg/kg (4.38 mmol/kg)): 36000 ng/mL
- t1/2λz ([1]; Histidine 100 mg/kg (Table A)): 51 h
- t1/2λz ([1]; Histidine 500 mg/kg (Table A)): 47 h
- t1/2λz ([1]; Histidine 1000 mg/kg (Table A)): 13 h
- total plasma clearance ([1]; 100 mg/kg): 180 mL/h/kg
- total plasma clearance ([1]; 500 mg/kg): 790 mL/h/kg
- total plasma clearance ([1]; 1000 mg/kg): 2562 mL/h/kg
- clinical signs [2]: No clinical signs were observed
- extent (conversion) of the transmetallation reactions, CuL formed ([3]; listed as Histidine): decrease
- rates of the transmetallation reactions ([3]; listed as Histidine): decrease
- extent (conversion) of the transmetallation reactions, CuL formed ([3]; listed as histidine): significantly decrease; also recorded: decrease with increasing concentration of histidine
- rates of the transmetallation reactions ([3]; listed as histidine): significantly decrease; also recorded: decrease with increasing concentration of histidine
- effect on the increase of relaxivity / extent of dissociation of Gd(DTPA-BMA) (Gd(DTPA-BMA); histidine 0.5 mM and 1.0 mM added to artificial plasma with 1.0 mM Gd(DTPA-BMA)): concentration dependent drop in the increase of the relaxivity values; also recorded: significantly decreases
- % ID in liver, spleen and skin versus group 1 [4, 8]: not significantly different
- changes in Gd^3+ content in liver and spleen [4, 8]: no significant changes
- % ID in liver, mean [4, 9]: 0.1094 % ID
- % ID in skin, mean [4, 9]: 0.0067 % ID
- % ID in spleen, mean [4, 9]: 0.00478 % ID
- Gadolinium content in liver, mean [4, 9]: 20.7 nmol/g of tissue
- Gadolinium content in spleen, mean [4, 9]: 20.0 nmol/g of tissue
- % ID in femour, mean [4, 10]: 0.00166** % ID
- Gadolinium content in femour, mean [4, 10]: 6.90** nmol/g of tissue
- % ID in femour, mean [4, 11]: 0.00166 % ID
- Gadolinium content in femour, mean [4, 11]: 6.90 nmol/g of tissue
- Gadolinium content in skin, mean [4, 10]: 11.25* nmol/g of tissue
- Gadolinium content in skin, mean [4, 11]: 11.25 nmol/g of tissue
- changes in Gd^3+ content in liver and spleen ([4]; group 3, histidine pretreatment at 1 h): no significant changes
- decrease in Gd^3+ content in femur (nmol/g tissue) [4, 12]: about 40%
- decrease of % ID in femour [4, 12]: about 40%
- effect on Gd^3+ accumulation ([4]; histidine treatment 60 min before Omniscan administration): didn't show, in this model, any effect
- mortality and clinical signs [5]: No mortalities nor changes in clinical signs
- time to peak levels after oral administration ([6]; L-Histidine in the salt form (HCl), oral route): 30 to 45 min
- AUC(0 to ∞) ([6]; healthy volunteers, single oral administration of Histidine at 100 mg/kg): 0.477 mg·h/mL
- serum parameters including protein bound zinc, serum and urinary zinc levels ([7]; human subjects, L-histidine up to 4 g/day, 15-days treatment): not shown to be grossly altered
- adverse effects ([7]; humans, oral, up to 4-6 g/day for several days): neither important adverse effects nor minor inconveniences

Compound: CNC(=O)CN(CCN(CCN(CC(=O)[O-])CC(=O)NC)CC(=O)[O-])CC(=O)[O-].[Gd+3] [Omniscan ®, Gadodiamide]
- relaxivity values as a function of time (dissociation of the complex) (Gd(DTPA-BMA); 1.0 mM Gd(DTPA-BMA) in artificial plasma, no added histidine): relaxivity values increase as a function of time
- changes of the UV spectrum of Cu(His)2 (transmetallation) (Cu(His)2; citrate 2.0 mM): the transmetallation reaction takes place
- changes of the UV spectrum of Cu(His)2 (transmetallation) (Cu(His)2; no citrate): no changes
